Laboratory results taken from PubChem BioAssay AID1963869 (Molecular Pharmacology Branch, DTP, NCI, 2024).

Tested on: KRAS patient-derived spheroids with HUVEC/MSC, viability
Experiment: Anticancer human tumor 323965-272-R-J2-PDC patient-derived pancreatic carcinoma cell line growth inhibition [KRAS2]
Conditions: for IC50: curve of first compound; for viability, T/C: stronger effect = lower value
Procedure, shortened: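 Combination screen of spheroid viability in tumor-cell co-cultures with endothelial (HUVEC) and mesenchymal stem cell stroma. Each agent was tested in half-log dilutions, topping at clinical Cmax or at 10 microM without a known Cmax.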

[1] = second compound 0.1 µM, first compound 0.01 µM
[2] = second compound 0.1 µM, first compound 0.0316 µM
[3] = second compound 0.1 µM, first compound 0.1 µM
[4] = second compound 0.1 µM, first compound 0.316 µM
[5] = second compound 0.1 µM, first compound 1 µM
[6] = second compound 0.1 µM, first compound 3.16 µM
[7] = second compound 0.316 µM, first compound 0.01 µM
[8] = second compound 0.316 µM, first compound 0.0316 µM
[9] = second compound 0.316 µM, first compound 0.1 µM
[10] = second compound 0.316 µM, first compound 0.316 µM
[11] = second compound 0.316 µM, first compound 1 µM
[12] = second compound 0.316 µM, first compound 3.16 µM
[13] = second compound 1 µM, first compound 0.01 µM
[14] = second compound 1 µM, first compound 0.0316 µM
[15] = second compound 1 µM, first compound 0.1 µM
[16] = second compound 1 µM, first compound 0.316 µM
[17] = second compound 1 µM, first compound 1 µM
[18] = second compound 1 µM, first compound 3.16 µM
[19] = second compound 3.16 µM, first compound 0.01 µM
[20] = second compound 3.16 µM, first compound 0.0316 µM
[21] = second compound 3.16 µM, first compound 0.1 µM
[22] = second compound 3.16 µM, first compound 0.316 µM
[23] = second compound 3.16 µM, first compound 1 µM
[24] = second compound 3.16 µM, first compound 3.16 µM
[25] = second compound 10 µM, first compound 0.0316 µM
[26] = second compound 10 µM, first compound 0.1 µM
[27] = second compound 10 µM, first compound 0.316 µM
[28] = second compound 10 µM, first compound 1 µM
[29] = second compound 10 µM, first compound 3.16 µM
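Further: spheroids exposed to agents for 7 days.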
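Wherever viability, T/C is given: 100% = DMSO vehicle control viability.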

SMILES: CC(=O)OC12COC1CC(O)C1(C)C(=O)C(O)C3=C(C)C(OC(=O)C(O)C(NC(=O)OC(C)(C)C)c4ccccc4)CC(O)(C(OC(=O)c4ccccc4)C21)C3(C)C (stereo not given) + COc1cc2nc(C)nc(NC(C)c3cc(N)cc(C(F)(F)F)c3)c2cc1OC1CCOC1
- IC50 (second compound 0.1 µM): < 10 nM
- IC50 (second compound 0.316 µM): < 10 nM
- IC50 (second compound 1 µM): < 10 nM
- IC50 (second compound 3.16 µM): < 10 nM
- IC50 (second compound 10 µM): < 10 nM
- viability, T/C [1]: 28.6%
- viability, T/C [2]: 28.6%
- viability, T/C [3]: 23.8%
- viability, T/C [4]: 23.2%
- viability, T/C [5]: 28.2%
- viability, T/C [6]: 25.2%
- viability, T/C [7]: 24.2%
- viability, T/C [8]: 24.5%
- viability, T/C [9]: 21.6%
- viability, T/C [10]: 22.4%
- viability, T/C [11]: 24.5%
- viability, T/C [12]: 25.2%
- viability, T/C [13]: 21.6%
- viability, T/C [14]: 28%
- viability, T/C [15]: 27.6%
- viability, T/C [16]: 27.2%
- viability, T/C [17]: 30.4%
- viability, T/C [18]: 35.3%
- viability, T/C [19]: 21.4%
- viability, T/C [20]: 20.1%
- viability, T/C [21]: 18.8%
- viability, T/C [22]: 20.4%
- viability, T/C [23]: 20.1%
- viability, T/C [24]: 24.3%
- viability, T/C (second compound 10 µM, first compound 0.01 µM): 23.1%
- viability, T/C [25]: 21.2%
- viability, T/C [26]: 17.8%
- viability, T/C [27]: 17.1%
- viability, T/C [28]: 21.2%
- viability, T/C [29]: 15.8%

SMILES: CC(=O)Nc1cccc(-n2c(=O)n(C3CC3)c(=O)c3c(Nc4ccc(I)cc4F)n(C)c(=O)c(C)c32)c1 + C=CC(=O)N1CCN(c2nc(OCC3CCCN3C)nc3c2CCN(c2cccc4cccc(C)c24)C3)CC1CC#N
- IC50 (second compound 0.0316 µM): 1.71 nM
- IC50 (second compound 0.1 µM): 0.644 nM
- IC50 (second compound 0.316 µM): 0.255 nM
- IC50 (second compound 1 µM): 0.361 nM
- IC50 (second compound 3.16 µM): < 0.1 nM
- viability, T/C (second compound 0.0316 µM, first compound 0.0001 µM): 62.1%
- viability, T/C (second compound 0.0316 µM, first compound 0.000316 µM): 63.8%
- viability, T/C (second compound 0.0316 µM, first compound 0.001 µM): 53.4%
- viability, T/C (second compound 0.0316 µM, first compound 0.00316 µM): 44%
- viability, T/C (second compound 0.0316 µM, first compound 0.01 µM): 34.1%
- viability, T/C (second compound 0.0316 µM, first compound 0.0316 µM): 23.9%
- viability, T/C (second compound 0.1 µM, first compound 0.0001 µM): 64.4%
- viability, T/C (second compound 0.1 µM, first compound 0.000316 µM): 56.8%
- viability, T/C (second compound 0.1 µM, first compound 0.001 µM): 46.8%
- viability, T/C (second compound 0.1 µM, first compound 0.00316 µM): 35.4%
- viability, T/C [1]: 32.1%
- viability, T/C [2]: 22.7%
- viability, T/C (second compound 0.316 µM, first compound 0.0001 µM): 56.7%
- viability, T/C (second compound 0.316 µM, first compound 0.000316 µM): 46.6%
- viability, T/C (second compound 0.316 µM, first compound 0.001 µM): 43.6%
- viability, T/C (second compound 0.316 µM, first compound 0.00316 µM): 31.6%
- viability, T/C [7]: 27.4%
- viability, T/C [8]: 18.8%
- viability, T/C (second compound 1 µM, first compound 0.0001 µM): 56.6%
- viability, T/C (second compound 1 µM, first compound 0.000316 µM): 53.8%
- viability, T/C (second compound 1 µM, first compound 0.001 µM): 40%
- viability, T/C (second compound 1 µM, first compound 0.00316 µM): 37.2%
- viability, T/C [13]: 28.3%
- viability, T/C [14]: 18.9%
- viability, T/C (second compound 3.16 µM, first compound 0.0001 µM): 26%
- viability, T/C (second compound 3.16 µM, first compound 0.000316 µM): 28.5%
- viability, T/C (second compound 3.16 µM, first compound 0.001 µM): 17%
- viability, T/C (second compound 3.16 µM, first compound 0.00316 µM): 22.4%
- viability, T/C [19]: 4.06%
- viability, T/C [20]: 5.52%

SMILES: Cn1nccc1Nc1nccc(-c2cc3c(s2)C(C)(C)N(CCN2CCOCC2)C3=O)n1 + CNCc1ccccc1-c1csc(C(C)Nc2nc(C)nc3cc(OC)c(OC)cc23)c1
- IC50 (second compound 0.1 µM): 1050 nM
- IC50 (second compound 0.316 µM): 1360 nM
- IC50 (second compound 1 µM): 3970 nM
- IC50 (second compound 3.16 µM): 1660 nM
- IC50 (second compound 10 µM): < 31.6 nM
- viability, T/C [2]: 98.5%
- viability, T/C [3]: 84.4%
- viability, T/C [4]: 64.6%
- viability, T/C [5]: 51.3%
- viability, T/C [6]: 41%
- viability, T/C (second compound 0.1 µM, first compound 10 µM): 37.2%
- viability, T/C [8]: 86.9%
- viability, T/C [9]: 79.3%
- viability, T/C [10]: 71.9%
- viability, T/C [11]: 52.2%
- viability, T/C [12]: 41.7%
- viability, T/C (second compound 0.316 µM, first compound 10 µM): 38.1%
- viability, T/C [14]: 95.5%
- viability, T/C [15]: 89.4%
- viability, T/C [16]: 72.8%
- viability, T/C [17]: 67.3%
- viability, T/C [18]: 48.1%
- viability, T/C (second compound 1 µM, first compound 10 µM): 45%
- viability, T/C [20]: 92.6%
- viability, T/C [21]: 78.5%
- viability, T/C [22]: 70%
- viability, T/C [23]: 54.9%
- viability, T/C [24]: 43.2%
- viability, T/C (second compound 3.16 µM, first compound 10 µM): 30%
- viability, T/C [25]: 0.23%
- viability, T/C [26]: 0.22%
- viability, T/C [27]: 0.19%
- viability, T/C [28]: 0.17%
- viability, T/C [29]: 0.17%
- viability, T/C (second compound 10 µM, first compound 10 µM): 0.19%
